pIC50: −log10 of the molar value. Like-named read-outs stand apart in the source and are kept apart here.
Assays:
[1] = biological target: NDM-1 (Klebsiella pneumoniae, UniProt C7C422); experiment: biochemical; assay type: biochemical; details: read-out: NDM-1 IC50
[2] = biological target: IMP-1 (Serratia marcescens, UniProt P52699); experiment: biochemical; assay type: biochemical; details: read-out: IMP-1 IC50
[3] = test system: Escherichia coli expressing NDM-1 (CLB30016); experiment: Antibiotic potentiation activity: synergistic concentration (MITC95) with imipenem, OD600 growth; assay type: cell-based; details: for Escherichia coli expressing NDM-1 (CLB 30016) MITC95: concentration giving 95% inhibition of bacterial growth
Procedure, shortened: (§1)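 Compound activity is tested with and without imipenem, which is present at 4 μg/ml (or 1 μg/ml) in the well. Bacteria in 1.1× CAMHB are incubated 22–24 h at 35 °C; absorbance gives the growth endpoint.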

[4] = test system: Klebsiella pneumoniae expressing VIM-1 (IHMA599644); experiment: as above; assay type: cell-based; details: for Klebsiella pneumoniae expressing VIM-1 (IHMA 599644) MITC95: concentration giving 95% inhibition of bacterial growth
Procedure, shortened: as §1

[5] = test system: Serratia marcescens expressing IMP-1 (CL5741); experiment: as above; assay type: cell-based; details: for Serratia marcescens expressing IMP-1 (CL5741) MITC95: concentration giving 95% inhibition of bacterial growth
Procedure, shortened: as §1

[6] = biological target: VIM-1 (Pseudomonas aeruginosa (strain ATCC 15692 / DSM 22644 / CIP 104116 / JCM 14847 / LMG 12228 / 1C / PRS 101 / PAO1), UniProt A0A0F7KYQ8); experiment: Enzyme activity: determination of IC50, fluorescence assay with CCF2-FA substrate (VIM-1); assay type: biochemical
[7] = fluorescence assay with CCF2-FA substrate
[8] = VIM-1 IC50, fluorescence assay with CCF2-FA substrate
[9] = NDM-1 enzyme, CCF2-FA substrate
[10] = IMP-1 enzyme, CCF2-FA substrate
[11] = (CLB30016, NDM-1), 95% growth inhibition
[12] = Klebsiella pneumoniae IHMA599644 (VIM-1), 95% growth inhibition
[13] = Serratia marcescens CL5741 (IMP-1), 95% growth inhibition
[14] = VIM-1 enzyme, CCF2-FA substrate, read-out: VIM-1 IC50
[15] = CLB30016 (NDM-1), 95% inhibition of bacterial growth
[16] = IHMA599644 (VIM-1), 95% inhibition of bacterial growth
[17] = CL5741 (IMP-1), 95% inhibition of bacterial growth
[18] = fluorescence assay with CCF2-FA substrate, read-out: VIM-1 IC50
[19] = NDM-1 enzyme, CCF2-FA fluorescence assay
[20] = IMP-1 enzyme, CCF2-FA fluorescence assay
[21] = Escherichia coli expressing NDM-1 (CLB30016), 95% growth inhibition
[22] = Klebsiella pneumoniae expressing VIM-1 (IHMA599644), 95% growth inhibition
[23] = Serratia marcescens expressing IMP-1 (CL5741), 95% growth inhibition
[24] = VIM-1 enzyme, CCF2-FA fluorescence assay, read-out: VIM-1 IC50

NDM-1, sequence (C7C422 whole entry, looked up, species assumed): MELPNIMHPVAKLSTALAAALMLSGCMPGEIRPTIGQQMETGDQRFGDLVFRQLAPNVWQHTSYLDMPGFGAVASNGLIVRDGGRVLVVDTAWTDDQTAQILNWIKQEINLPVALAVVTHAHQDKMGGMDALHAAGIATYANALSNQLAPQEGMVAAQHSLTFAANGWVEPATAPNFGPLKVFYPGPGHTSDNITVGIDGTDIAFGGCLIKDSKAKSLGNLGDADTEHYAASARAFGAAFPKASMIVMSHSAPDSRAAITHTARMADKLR
IMP-1, sequence (P52699 whole entry, looked up): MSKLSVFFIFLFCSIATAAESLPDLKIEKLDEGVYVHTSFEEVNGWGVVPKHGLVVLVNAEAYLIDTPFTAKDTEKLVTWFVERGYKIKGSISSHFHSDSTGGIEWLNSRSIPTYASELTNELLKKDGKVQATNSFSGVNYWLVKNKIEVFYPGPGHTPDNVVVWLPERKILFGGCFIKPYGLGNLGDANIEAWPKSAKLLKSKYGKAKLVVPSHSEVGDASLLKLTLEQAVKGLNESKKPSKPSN

Structure (SMILES) | pIC50 [1, 7] | pIC50 [2, 7] | pIC50 [1, 9] | pIC50 [2, 10] | Escherichia coli MITC95 [3, 11] [µM] | Klebsiella pneumoniae MITC95 [4, 12] [µM] | Serratia marcescens MITC95 [5, 13] [µM] | pIC50 [1, 19] | pIC50 [2, 20] | Escherichia coli MITC95 [3, 21] [µM] | Klebsiella pneumoniae MITC95 [4, 22] [µM] | Serratia marcescens MITC95 [5, 23] [µM] | also measured
Nc1nnc(C2CCN(c3ccnc(S(N)(=O)=O)c3-c3nnn[nH]3)CC2)s1 [Example 216, 4-[4-(5-amino-1,3,4-thiadiazol-2-yl)piperidin-1-yl]-3-(1H-tetrazol-5-yl)pyridine-2-sulfonamide] | 7.39 | 6.34 |  |  |  |  |  |  |  |  |  |  | Escherichia coli expressing NDM-1 (CLB 30016) MITC95 [3]: 1.172 µM; Klebsiella pneumoniae expressing VIM-1 (IHMA 599644) MITC95 [4]: 18.75 µM; Serratia marcescens expressing IMP-1 (CL5741) MITC95 [5]: 12.5 µM; pIC50 [6, 8]: 7.01
NS(=O)(=O)c1cccc(-c2ccc(C3CCN(CC4CNC4)CC3)cc2)c1-c1nnn[nH]1 [Example 617, 3-[4-[1-(azetidin-3-ylmethyl)-4-piperidyl]phenyl]-2-(1H-tetrazol-5-yl)benzenesulfonamide] |  |  | 8.00 | 8.01 | 0.25 | 37.5 | 0.2969 |  |  |  |  |  | pIC50 [6, 14]: 6.48
Cc1cc2nccn2cc1-c1cccc(S(N)(=O)=O)c1-c1nnn[nH]1 [Example 115, 3-(7-methylimidazo[1,2-a]pyridin-6-yl)-2-(1H-tetrazol-5-yl)benzenesulfonamide] | 8.11 | 6.26 |  |  |  |  |  |  |  |  |  |  | Escherichia coli expressing NDM-1 (CLB 30016) MITC95 [3]: 0.25 µM; Klebsiella pneumoniae expressing VIM-1 (IHMA 599644) MITC95 [4]: 37.5 µM; Serratia marcescens expressing IMP-1 (CL5741) MITC95 [5]: 18.75 µM; pIC50 [6, 8]: 7.26
NS(=O)(=O)c1c(C(F)(F)F)ccc(N2CCC3(CCNCC3)CC2)c1-c1nnn[nH]1 [Example 783, 3-(3,9-diazaspiro[5.5]undecan-3-yl)-2-(1H-tetrazol-5-yl)-6-(trifluoromethyl) benzenesulfonamide] | 8.31 | 7.87 |  |  |  |  |  |  |  |  |  |  | Escherichia coli MITC95 [3, 15]: 1.172 µM; Klebsiella pneumoniae MITC95 [4, 16]: 2.344 µM; Serratia marcescens MITC95 [5, 17]: 0.5859 µM; pIC50 [6, 18]: 8.72
COc1ccc2cc(-c3cccc(S(N)(=O)=O)c3-c3nnn[nH]3)cnc2n1 [Example 138, 3-(7-methoxy-1,8-naphthyridin-3-yl)-2-(1H-tetrazol-5-yl)benzenesulfonamide] | 8.17 | 6.45 |  |  |  |  |  |  |  |  |  |  | Escherichia coli expressing NDM-1 (CLB 30016) MITC95 [3]: 1.563 µM; Klebsiella pneumoniae expressing VIM-1 (IHMA 599644) MITC95 [4]: >200 µM; Serratia marcescens expressing IMP-1 (CL5741) MITC95 [5]: 37.5 µM; pIC50 [6, 18]: 6.78
NS(=O)(=O)c1c(C[C@H]2CC[C@H](N)CC2)ccc(-c2ccc(C3CNC3)cc2)c1-c1nn[nH]n1 [Example 595, 4-(((1r,4r)-4-aminocyclohexyl)methyl)-4′-(azetidin-3-yl)-2-(2H-tetrazol-5-yl)-[1,1′-biphenyl]-3-sulfonamide] |  |  | 8.36 | 7.37 | 0.7813 | 1.563 | 3.125 |  |  |  |  |  | pIC50 ([6]; VIM-1 IC50, VIM-1 enzyme, CCF2-FA substrate): 8.89
NS(=O)(=O)c1cccc(-c2ccc(CN3CCCC3CO)cc2)c1-c1nnn[nH]1 (stereo not drawn) [Example 395, 4′-{[2-(hydroxymethyl)pyrrolidin-1-yl]methyl}-2-(1H-tetrazol-5-yl)biphenyl-3-sulfonamide] |  |  |  |  |  |  |  | 7.84 | 6.65 | 1.563 | 100 | 3.125 | pIC50 [6, 24]: 6.46
NS(=O)(=O)c1c(C(F)(F)F)ccc(N2CCC(N3CCNCC3)C2)c1-c1nnn[nH]1 (stereo not drawn) [Example 770, 3-(3-piperazin-1-ylpyrrolidin-1-yl)-2-(1H-tetrazol-5-yl)-6-(trifluoromethyl) benzenesulfonamide] | 6.44 | 6.60 |  |  |  |  |  |  |  |  |  |  | Escherichia coli MITC95 [3, 15]: 50 µM; Klebsiella pneumoniae MITC95 [4, 16]: 3.125 µM; Serratia marcescens MITC95 [5, 17]: 50 µM; pIC50 [6, 18]: 8.12
NS(=O)(=O)c1nccc(N2CCC(Oc3ncccn3)CC2)c1-c1nnn[nH]1 [Example 231, 4-[4-(pyrimidin-2-yloxy)piperidin-1-yl]-3-(1H-tetrazol-5-yl)pyridine-2-sulfonamide] | 7.97 | 6.37 |  |  |  |  |  |  |  |  |  |  | Escherichia coli expressing NDM-1 (CLB 30016) MITC95 [3]: 4.688 µM; Klebsiella pneumoniae expressing VIM-1 (IHMA 599644) MITC95 [4]: >200 µM; Serratia marcescens expressing IMP-1 (CL5741) MITC95 [5]: 18.75 µM; pIC50 [6, 18]: 6.49
Nc1ccc2cc(-c3cccc(S(N)(=O)=O)c3-c3nnn[nH]3)ccc2n1 [Example 403, 3-(2-amino-6-quinolyl)-2-(1H-tetrazol-5-yl)benzenesulfonamide] |  |  |  |  |  |  |  | 8.63 | 6.74 | 0.125 | 6.25 | 4.688 | pIC50 [6, 24]: 7.81
NS(=O)(=O)c1c(C(F)(F)F)ccc(-c2cccc3c2CCNC3)c1-c1nn[nH]n1 [Example 517, 3-(1,2,3,4-Tetrahydroisoquinolin-5-yl)-2-(2H-tetrazol-5-yl)-6-(trifluoromethyl)benzenesulfonamide] |  |  | 8.23 | 7.43 | 3.125 | 1.563 | 3.125 |  |  |  |  |  | pIC50 [6, 14]: 9.03
NS(=O)(=O)c1cccc(-c2ccc(CN3CCC(CO)C3)cc2)c1-c1nnn[nH]1 (stereo in doubt) [Example 391, 4′-{[(3S)-3-(hydroxymethyl)pyrrolidin-1-yl]methyl}-2-(1H-tetrazol-5-yl)biphenyl-3-sulfonamide] |  |  |  |  |  |  |  | 7.72 | 6.46 | 1.172 | 50 | 2.344 | pIC50 ([6]; VIM-1 IC50, VIM-1 enzyme, CCF2-FA fluorescence assay): 6.40
C[N+](C)(C)CCN1CCC(c2ccc(-c3ccc(C(F)(F)F)c(S(N)(=O)=O)c3-c3nnn[nH]3)cc2)CC1 [Example 677, N,N,N-trimethyl-2-{4-[3′-sulfamoyl-2′-(1H-tetrazol-5-yl)-4′-(trifluoromethyl)biphenyl-4-yl]piperidin-1-yl}ethanaminium] |  |  | 8.38 | 9.27 | 12.5 | >200 | 12.5 |  |  |  |  |  | pIC50 [6, 14]: 7.71
NS(=O)(=O)c1cccc(-c2cc3ccncc3s2)c1-c1nnn[nH]1 [Example 410, 2-(1H-tetrazol-5-yl)-3-thieno[2,3-c]pyridin-2-yl-benzenesulfonamide] |  |  |  |  |  |  |  | 8.39 | 6.97 | 0.5859 | 18.75 | 3.125 | pIC50 [6, 24]: 7.72
NCCCNc1nc2c(-c3cccc(S(N)(=O)=O)c3-c3nnn[nH]3)cccc2s1 [Example 643, 3-[2-(3-aminopropylamino)-1,3-benzothiazol-4-yl]-2-(1H-tetrazol-5-yl)benzenesulfonamide] |  |  | 8.63 | 7.00 | 1.563 | 25 | 25 |  |  |  |  |  | pIC50 [6, 14]: 7.91
Nc1ccc(CCc2cccc(S(N)(=O)=O)c2-c2nn[nH]n2)cn1 [Example 427, 3-(2-(6-aminopyridin-3-yl)ethyl)-2-(2H-tetrazol-5-yl)benzenesulfonamide] |  |  |  |  |  |  |  | 7.53 | 6.96 | 0.25 | 75 | 4.688 | pIC50 [6, 24]: 6.35

From patent US9708336B2, “Metallo-beta-lactamase inhibitors” (priority 2014, dated 2017)
